Assay results published in the supplement of paper PMC8149375.

Assays:
Conditions in all cases: treatment: drug alone; 5 days
UO-31 [1] = assay: GI50, drug alone; higher = less potent
Method: (§1)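 Primary HTS: 8 RCC cell lines treated with 8 doses (up to 10 uM) of each library drug alone for 5 days; viability read by CellTiter-Glo and normalised to DMSO. GI50 was fitted with XLfit (4-parameter), AUC is the area under the dose-response curve, and minimum viability is the lowest fraction of DMSO viability across doses.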

ACHN [2] = assay: GI50, drug alone; higher = less potent
Method: as §1

786-O [3] = assay: GI50, drug alone; higher = less potent
Method: as §1

A498 [4] = assay: GI50, drug alone; higher = less potent
Method: as §1

CAKI-1 [5] = assay: GI50, drug alone; higher = less potent
Method: as §1

SN12C [6] = assay: GI50, drug alone; higher = less potent
Method: as §1

769-P [7] = assay: GI50, drug alone; higher = less potent
Method: as §1

TK-10 [8] = assay: GI50, drug alone; higher = less potent
Method: as §1

UO-31 [9] = assay: minimum viability across doses, drug alone, relative to DMSO (fraction); higher = less growth inhibition
Method: as §1

ACHN [10] = assay: as above
Method: as §1

786-O [11] = assay: as above
Method: as §1

A498 [12] = assay: as above
Method: as §1

CAKI-1 [13] = assay: as above
Method: as §1

SN12C [14] = assay: as above
Method: as §1

769-P [15] = assay: as above
Method: as §1

TK-10 [16] = assay: as above
Method: as §1

UO-31 [17] = assay: AUC of dose-response viability curve, drug alone (arbitrary (AUC of normalised viability)); higher = less growth inhibition
Method: as §1

ACHN [18] = assay: as above
Method: as §1

786-O [19] = assay: as above
Method: as §1

A498 [20] = assay: as above
Method: as §1

CAKI-1 [21] = assay: as above
Method: as §1

SN12C [22] = assay: as above
Method: as §1

769-P [23] = assay: as above
Method: as §1

TK-10 [24] = assay: as above
Method: as §1

In the case of `C=CC(=O)Nc1cccc(Oc2nc(Nc3ccc(N4CCN(C)CC4)cc3)ncc2Cl)c1` [WZ3146], the “GI50, drug alone” value (UO-31 [1]) is reported as 2600 nM, the “GI50, drug alone” value (ACHN [2]) is reported as 496 nM and the “GI50, drug alone” value (786-O [3]) is reported as 1450 nM. The “GI50, drug alone” value (A498 [4]) was 9890 nM, the “GI50, drug alone” value (CAKI-1 [5]) was 958 nM and the “GI50, drug alone” value (SN12C [6]) was 2340 nM. The “GI50, drug alone” value (769-P [7]) was 1900 nM, the “GI50, drug alone” value (TK-10 [8]) was 504 nM and the “minimum viability across doses” value (UO-31 [9]) was 0.0177. The “minimum viability across doses” value (ACHN [10]) was 0.0569, the “minimum viability across doses” value (786-O [11]) was 0.046 and the “minimum viability across doses” value (A498 [12]) was 0.452. For the same molecule, the “minimum viability across doses” value (CAKI-1 [13]) was 0.0135, the “minimum viability across doses” value (SN12C [14]) was 0.0769 and the “minimum viability across doses” value (769-P [15]) was 0.146. The “minimum viability across doses” value (TK-10 [16]) was 0.0399, the “AUC of dose-response viability curve” value (UO-31 [17]) was 3.76 and the “AUC of dose-response viability curve” value (ACHN [18]) was 2.34. For the same molecule, the “AUC of dose-response viability curve” value (786-O [19]) was 2.27, the “AUC of dose-response viability curve” value (A498 [20]) was 3.49 and the “AUC of dose-response viability curve” value (CAKI-1 [21]) was 2.62. The “AUC of dose-response viability curve” value (SN12C [22]) was 2.85, the “AUC of dose-response viability curve” value (769-P [23]) was 2.71 and the “AUC of dose-response viability curve” value (TK-10 [24]) was 2.07.
With `C=CC(=O)Nc1cccc(Oc2nc(Nc3ccc(N4CCN(C)CC4)cc3OC)ncc2Cl)c1` [WZ4002] the “GI50, drug alone” value (UO-31 [1]) was 8030 nM, the “GI50, drug alone” value (ACHN [2]) was 845 nM and the “GI50, drug alone” value (786-O [3]) was > 10000 nM. For the same molecule, the “GI50, drug alone” value (A498 [4]) was > 10000 nM, the “GI50, drug alone” value (CAKI-1 [5]) was 3380 nM and the “GI50, drug alone” value (SN12C [6]) was 4510 nM. For the same molecule, the “GI50, drug alone” value (769-P [7]) was > 10000 nM, the “GI50, drug alone” value (TK-10 [8]) was 1190 nM and the “minimum viability across doses” value (UO-31 [9]) was 0.0165. For the same molecule, the “minimum viability across doses” value (ACHN [10]) was 0.0645, the “minimum viability across doses” value (786-O [11]) was 0.547 and the “minimum viability across doses” value (A498 [12]) was 0.796. For the same molecule, the “minimum viability across doses” value (CAKI-1 [13]) was 0.385, the “minimum viability across doses” value (SN12C [14]) was 0.151 and the “minimum viability across doses” value (769-P [15]) was 0.576. The “minimum viability across doses” value (TK-10 [16]) was 0.0574, the “AUC of dose-response viability curve” value (UO-31 [17]) was 3.99 and the “AUC of dose-response viability curve” value (ACHN [18]) was 2.38. The “AUC of dose-response viability curve” value (786-O [19]) was 2.59, the “AUC of dose-response viability curve” value (A498 [20]) was 4.01 and the “AUC of dose-response viability curve” value (CAKI-1 [21]) was 2.96. The “AUC of dose-response viability curve” value (SN12C [22]) was 2.87, the “AUC of dose-response viability curve” value (769-P [23]) was 2.97 and the “AUC of dose-response viability curve” value (TK-10 [24]) was 2.42.
For `C=CC(=O)Nc1cccc(Sc2nc(Nc3ccc(N4CCN(C)CC4)cc3)ncc2Cl)c1` [WZ8040], the “GI50, drug alone” value (UO-31 [1]) was 8210 nM, the “GI50, drug alone” value (ACHN [2]) was 1280 nM and the “GI50, drug alone” value (786-O [3]) was 2910 nM. For the same molecule, the “GI50, drug alone” value (A498 [4]) was 9250 nM, the “GI50, drug alone” value (CAKI-1 [5]) was 2310 nM and the “GI50, drug alone” value (SN12C [6]) was 4060 nM. The “GI50, drug alone” value (769-P [7]) was 2960 nM, the “GI50, drug alone” value (TK-10 [8]) was 2090 nM and the “minimum viability across doses” value (UO-31 [9]) was 0.0196. The “minimum viability across doses” value (ACHN [10]) was 0.0112, the “minimum viability across doses” value (786-O [11]) was 0.00441 and the “minimum viability across doses” value (A498 [12]) was 0.282. For the same molecule, the “minimum viability across doses” value (CAKI-1 [13]) was 0.00227, the “minimum viability across doses” value (SN12C [14]) was 0.00541 and the “minimum viability across doses” value (769-P [15]) was 0.0235. For the same molecule, the “minimum viability across doses” value (TK-10 [16]) was 0.024, the “AUC of dose-response viability curve” value (UO-31 [17]) was 3.39 and the “AUC of dose-response viability curve” value (ACHN [18]) was 2.45. The “AUC of dose-response viability curve” value (786-O [19]) was 2.46, the “AUC of dose-response viability curve” value (A498 [20]) was 3.77 and the “AUC of dose-response viability curve” value (CAKI-1 [21]) was 2.51. For the same molecule, the “AUC of dose-response viability curve” value (SN12C [22]) was 2.85, the “AUC of dose-response viability curve” value (769-P [23]) was 2.81 and the “AUC of dose-response viability curve” value (TK-10 [24]) was 2.42.
